Measurements: patent publication US5817651A, “3-arylcarbonyl-1-(C-attached-N-heteryl)-1H-indoles” (Sanofi, priority 1997, dated 1998)
Where two headings read alike, the source gives them in different places.

Tests used:
[1] = tested on: acetylcholine-induced abdominal constriction; test: acetylcholine-induced abdominal constriction test (ACH); format: in vivo; set-up: key to ACH remark (Depr. = depressant): The abbreviations IA and Depr. represent, respectively, inactive and depressant; The abbreviations IA and Depr. represent, respectively, inactive and depressant; settings: mice; for ED50 / inhibition in vivo at 100 mg/kg: Mus musculus; for inhibition in vivo at 100 mg/kg: dose level 100, read-out: ACH percent inhibition at dose 100; for ACH remark (Depr. = depressant): remark beside the ED50
Summary of the method: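 Compounds were given as gum tragacanth suspensions or as aqueous solutions dissolved with dilute methanesulfonic or lactic acid.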

[2] = tested on: bradykinin; test: anti-bradykinin test (BDK); format: in vivo; set-up: key to BDK result (po): The abbreviations IA and Depr. represent, respectively, inactive and depressant; The abbreviations IA and Depr. represent, respectively, inactive and depressant
Description: (§1) The test procedures used to determine the analgesic activities of the compounds have been described in detail in the prior art and are as follows: The acetylcholine-induced abdominal constriction test, which is a primary analgesic screening test designed to measure the ability of a test agent to suppress acetylcholine-induced abdominal constriction in mice, described by Collier et al., Brit. J. Pharmacol. Chemotherap. 32, 295 (1968); a modification of the anti-bradykinin test, which is also a primary analgesic screening procedure, described by Berkowitz et al., J. Pharmacol. Exptl. Therap. 177, 500-508 (1971), Blane et al., J. Pharm. Pharmacol. 19, 367-373 (1967), Botha et al., Eur. J. Pharmacol. 6, 312-321 (1969) and Deffenu et al., J. Pharm. Pharmacol. 18, 135 (1966); and the Randall-Selitto analgesic test described by Randall and Selitto, Arch. Int. Pharmacodyn., 111, 409-419 (1957).
(§2) Data in the developing adjuvant arthritis (AA) and plasma fibronectin (FN) assays are expressed as percent inhibition, i.e. inhibition of non-injected paw inflammation (NIP) and injected paw (RPV) and lowering of plasma fibronectin, the asterisks * and ** indicating statistical significance at the p<0.01 and p<0.05 levels, respectively. Compounds are considered active at p<0.05 level. Non-statistically significant results are recorded as "------ ". In the acetylcholine-induced abdominal constriction test, the test compounds were administered either as suspensions in gum tragacanth (GT) or as aqueous solutions prepared by addition of just sufficient dilute aqueous methanesulfonic acid (MS) or dilute aqueous lactic acid (LA) to dissolve the compound. The compounds are identified by the example number above where their preparations are described. All data in the anti-bradykinin, rat writhing and Randall-Selitto tests were obtained on oral administration.

[3] = tested on: acetic acid-induced writhing; test: acetic acid-induced writhing assay in the rat (RW); format: in vivo; settings: for ED50: Rattus norvegicus, po; for ED50 / RW ED50: oral administration; for RW percent inhibition at dose 30: dose level 30
Procedure: as §2

[4] = tested on: paw pressure; test: Randall-Selitto (RS) paw pressure test; format: in vivo; settings: oral administration; read-out: RS minimum effective dose, MED
Description: as §1, §2

[5] = tested on: adjuvant induced arthritis; test: developing adjuvant arthritis (AA) assay; format: in vivo; set-up: key: Non-statistically significant results are recorded as "------ "; settings: arthritic rats; printed * = p<0.01, ** = p<0.05
Summary of the method: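 Rats given complete Freund's adjuvant into the right hindpaw on day 1. Drug treatment begins while disease is developing but not yet irreversible. Swelling of non-injected (NIP) and injected (RPV) paws read 15–20 days later, expressed as percent inhibition; active at p<0.05.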

[6] = tested on: mouse vasa deferentia preparation; test: mouse vas deferens test (MVD); format: cell-based; settings: inhibition of contractions, in vitro, active at 5.0 μM or less
Description: It has been shown previously that smoking marijuana reduces intraocular pressure in man [Helper and Frank, Marijuana Smoking and Intraocular Pressure., J. Am. Med. Assoc. 217, 1392 (1971)]. Topical application or systemic injection of delta-9 tetrahydrocannabinol, a principal active ingredient in marijuana, also reduces intraocular pressure [Purnell and Gregg, delta-9 Tetrahydrocannabinol, Euphoria and Intraocular Pressure in Man., Ann. Opth. 7, 921-923 (1975); Green and Pederson, Effect of delta-9 Tetrahydrocannabinol on Aqueous Dynamics and Ciliary Body Permeability in the Rabbit Eye., Exptl. Eye Research 15, 499-507 (1973); Colasanti, Craig and Allara, Intraocular Pressure, Ocular Toxicity and Neurotoxicity after Administration of Cannabinol or Cannibigerol, Exptl. Eye Research 39, 252-259 (1984)]. Similarly, synthetic cannabinoids also reduce intraocular pressure [Green, Symunds, Oliver and Elijah, Intraocular Pressure Following Systemic Administration of Cannabinoids., Curr. Eye Research 2, 247-253 (1982); Tiedeman, Shields, Weber, Crow, Coccetto, Harris and Howes, Opthalmology, 88, 270-277 (1981); Colasanti et al., supra]. Cannabinoid receptor binding sites can be defined as those to which radio-labelled 4-(1,1-dimethylheptyl)-2,3'-dihydroxy-6'alpha-(3-hydroxypropyl)-1', 2', 3', 4', 5', 6'-hexahydrobiphenyl (CP 55940) binds in a specific and saturable manner and the binding sites are heterogeneously distributed in the brain [Devane, Dysarz, Johnson, Melvin and Howlett, Determination and Characterization of a Cannabinoid Receptor in Rat Brain, Molecular Pharm. 34, 605-613 (1988)]. Natural and synthetic cannabinoids and certain of the compounds of the present invention, as more particularly described above, bind to CP 55940 binding sites. […] It is believed that agonist activity at the cannabinoid receptor mediates the anti-glaucoma actions of cannabinoids, and that agonist activity at this receptor correlates with ocular pressure lowering actions in man. Accordingly the cannabinoid receptor agonist activity of the compounds of the present invention indicate their usefulness in reducing ocular pressure.

[7] = target: T1, Cannabinoid receptor (CP 55940 binding sites) (Rattus norvegicus, UniProt P20272); test: CP 55940 binding assay
T1 construct: from tissue
T1 sequence (P20272 whole entry): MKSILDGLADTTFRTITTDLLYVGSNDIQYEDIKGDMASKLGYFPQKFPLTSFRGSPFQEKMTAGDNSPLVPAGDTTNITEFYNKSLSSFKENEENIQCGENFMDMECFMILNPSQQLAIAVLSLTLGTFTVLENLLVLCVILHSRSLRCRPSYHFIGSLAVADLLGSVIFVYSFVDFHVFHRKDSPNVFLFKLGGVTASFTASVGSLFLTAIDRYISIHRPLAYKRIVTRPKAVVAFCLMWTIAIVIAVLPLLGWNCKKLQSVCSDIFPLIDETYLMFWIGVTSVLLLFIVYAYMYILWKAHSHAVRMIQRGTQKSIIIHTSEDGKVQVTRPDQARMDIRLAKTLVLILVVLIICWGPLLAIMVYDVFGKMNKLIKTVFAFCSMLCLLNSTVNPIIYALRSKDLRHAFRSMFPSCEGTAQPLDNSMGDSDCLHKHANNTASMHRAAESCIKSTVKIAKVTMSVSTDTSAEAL

[8] = Table 9, Examples, no route marked in the cell, read-out: ACH ED50
[9] = iv, Table 9, iv, read-out: ACH ED50 (iv)
[10] = Table 9, Examples, no route marked in the cell

Row | SMILES | ED50 [1, 8] [mg/kg] | ED50 [1, 9] [mg/kg] | ED50 [3] [mg/kg] | NIP: percent inhibition of non-injected paw inflammation [5] | RPV: percent inhibition of injected paw [5] [%] | IC50 ([6]; Mus musculus) [µM] | further results
1 | COc1ccc(C(=O)c2c(C)n(CC3CCCN3C)c3ccccc23)cc1 (racemic) [Example 2E] | 27 | 6 | 6 | -- | 24 | 0.063 | BDK result (po) ([2]; po): IA; minimal effective dose [4]: 0.03 mg/kg
2 | COc1ccc(C(=O)c2c(C)n(C3CCCN(C)C3)c3ccccc23)cc1.Cl (racemic) [Example 4A, 1-(1-methyl-3-piperidinyl)-2-methyl-3-(4-methoxybenzoyl)-1H-indole hydrochloride] | 33 |  |  | 50% | 26 | 0.65 | RW percent inhibition at dose 17 ([3]; oral, dose level 17): 57%
3 | COc1ccc(C(=O)c2c(C)n(C[C@@H]3CC[C@@H](C)N3C)c3ccccc23)cc1 (relative stereo) [Example 1Y] | 21 | 2 | 3 | 67% | 48 | 0.052 | ED50 ([1]; sc, Table 9, sc, read-out: ACH ED50 (sc)): 10 mg/kg
4 | COc1ccc(C(=O)c2cn(C(C)C3CCCN3C)c3ccccc23)cc1 (stereo not shown) [Example 1AB] |  |  |  |  |  |  | ACH ED50 [1, 10]: 19 mg/kg; RW ED50 [3]: 10 mg/kg; IC50 [6]: 0.56 µM
5 | Cc1c(C(=O)c2cccc3ccccc23)c2ccccc2n1CC1CCCN(C)C1 (stereo not shown) [Example 1M] |  | 7 |  |  |  | 0.091 | inhibition in vivo at 100 mg/kg ([1]; Table 9): 25%; minimal effective dose [4]: 0.1 mg/kg
6 | COc1ccc(C(=O)c2cn(CC3CCCN(C)C3)c3ccccc23)cc1 (stereo not shown) [Example 1N] | 91 |  |  |  |  | 0.094 | RW ED50 [3]: 28.3 mg/kg
7 | CSc1ccc(C(=O)c2c(C)n(CC3CCCN3C)c3ccccc23)cc1 (stereo not shown) [Example 1V] | 25 |  | 7 |  |  | 0.13 | 
8 | COc1ccc(C(=O)c2c(C)n(C3CCN(C)C3)c3ccccc23)cc1 (stereo not shown) [Example 1X] | 20 |  | 12 | -- | 23 | 0.15 | 
9 | COc1ccc(C(=O)c2c(C)n(CC3CCN(C)CC3)c3ccccc23)cc1 [Example 2AH] | 4 |  |  |  |  |  | ACH ED50 [1, 10]: 5 mg/kg; BDK percent inhibition at dose 3 ([2]; oral, dose level 3): 30%; RW percent inhibition at dose 30 ([3]; oral): 74%
10 | CCc1ccc(C(=O)c2c(C)n(CC3CCCN3C)c3ccccc23)cc1 (stereo not shown) [Example 2AK] | 40 |  | 7 |  |  | 0.025 | 
11 | COc1ccc(C(=O)c2c(C)n(CCC3CCCN3C)c3ccccc23)cc1 (stereo not shown) [Example 2B] | 32 | 8 | 25 |  |  |  | ACH ED50 ([1]; Table 9, Examples, no route marked in the cell, listed as 2B(HCl)): 23 mg/kg; minimal effective dose [4]: 10 mg/kg
12 | COc1ccc(C(=O)c2c(C)n(CC3CCCN(C)C3)c3ccccc23)cc1 (stereo not shown) [Example 2D] | 8 |  | 2 | 99% | 78 |  | ED50 ([2]; oral administration): 2.4 mg/kg
13 | COc1ccc(C(=O)c2cn(CCC3CCCCN3C)c3ccccc23)cc1 (stereo not shown) [Example 2F] | 45 | 4 |  |  |  |  | minimal effective dose [4]: 3 mg/kg
14 | COc1ccc(C(=O)c2c(C)n(CC3CCCCN3C)c3ccccc23)cc1 (stereo not shown) [Example 2H] | 33 |  | 22 | 69% | 51 | 0.134 | 
15 | COc1ccc(C(=O)c2cn(CC3CCCCN3C)c3ccccc23)cc1 (stereo not shown) [Example 2J] | 6 |  | 0.5 | 66% | 27 | 0.003 | ACH remark (Depr. = depressant) ([1]; Table 9): Depr.
16 | CN1CCCCC1Cn1cc(C(=O)c2cccc3ccccc23)c2ccccc21 (stereo not shown) [Example 2P] | 9 | 0.03 |  |  |  | 0.00022 | ACH ED50 (iv) ([1]; Table 9, iv): 0.05 mg/kg; ACH remark (Depr. = depressant) ([1]; Table 9): Depr.; RW percent inhibition at dose 30 ([3]; oral): 98%; IC50 [7]: 0.0014 µM
17 | Cc1c(C(=O)c2cccc3ccccc23)c2ccccc2n1CC1CCCCN1C (stereo not shown) [Example 2R] | 22 |  |  | 57% | 29 | 0.001 | RW percent inhibition at dose 30 ([3]; oral): 100%
18 | CN1CCCCC1CCn1cc(C(=O)c2cccc3ccccc23)c2ccccc21 (stereo not shown) [Example 2U] |  |  |  |  |  | 0.107 | inhibition in vivo at 100 mg/kg ([1]; Table 9): 30%; RW percent inhibition at dose 30 ([3]; oral): 50%
19 | COc1ccc(C(=O)c2cn(CC3CCCN3C)c3ccccc23)cc1 (stereo not shown) [Example 2W] | 11 |  | 3 |  |  | 0.008 | ACH remark (Depr. = depressant) ([1]; Table 9): Depr.
